Results on one molecule are retold here after PMC5727100, “Evolution of a flipped pathway creates metabolic innovation in tomato trichomes through BAHD enzyme promiscuity” (Nature Communications, 2017).

For this assay, the target named is T1, S. arcanum LA2172-ASAT2 (Solanum arcanum, UniProt A0A0U2QQP2).
T1 construct: pET28b, His-tag nickel purified from E. coli BL21 Rosetta
T1 sequence (A0A0U2QQP2 1-446): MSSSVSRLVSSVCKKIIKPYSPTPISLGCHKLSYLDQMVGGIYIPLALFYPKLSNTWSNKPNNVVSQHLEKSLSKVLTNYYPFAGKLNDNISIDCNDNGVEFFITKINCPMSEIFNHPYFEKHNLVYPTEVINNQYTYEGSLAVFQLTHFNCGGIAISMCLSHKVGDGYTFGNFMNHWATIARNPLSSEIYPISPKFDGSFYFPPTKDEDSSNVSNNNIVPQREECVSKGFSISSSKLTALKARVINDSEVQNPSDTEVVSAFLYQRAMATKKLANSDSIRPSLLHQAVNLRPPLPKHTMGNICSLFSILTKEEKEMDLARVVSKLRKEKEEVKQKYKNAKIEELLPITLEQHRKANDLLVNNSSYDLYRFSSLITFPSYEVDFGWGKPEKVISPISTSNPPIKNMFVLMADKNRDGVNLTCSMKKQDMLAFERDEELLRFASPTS
The experiment in a line: LC/MS product detection. It counts as biochemical. The settings on record: acyl-CoA donor 100 uM; acceptor 50 uM; pH 6.0, 30 C.

For `CC(C)CC(=O)O[C@H]1[C@H](O)[C@@H](O)[C@@H](O[C@]2(CO)O[C@H](CO)[C@@H](O)[C@@H]2O)O[C@@H]1CO` [S1:5 (iC5^R4)], the LC/MS product detection entry was “all characterized ASAT2 proteins in this tomato subclade possessed only F-type enzymatic activities”.
